Measured values taken from patent US11911407B2, “Therapies for cardiomyopathy” (UNIVERSITY COLLEGE DUBLIN, NATIONAL UNIVERSITY OF IRELAND, priority 2013, dated 2024).
“Also recorded” adds a separate entry of the source.

Tests used:
HCF cells [1] = assay: DNA demethylation with 5-aza-2′-deoxycytidine in hypoxic HCF cells, pro-fibrotic protein expression; assay type: cell-based, human; conditions: for expression of ASMA / expression of collagen 1 / expression of collagen 3: hypoxic fibroblasts with TGFβ; for expression of ASMA / expression of collagen 1 / expression of collagen 3 / pro-fibrotic effects of / responses to TGFβ: 1-5 μM; for pro-fibrotic effects of / responses to TGFβ: hypoxic fibroblasts, up to eight days
Description: Where indicated, HCF cells were exposed to a 1% oxygen environment for up to 8 days using a hypoxic chamber (Coy Laboratories). The effects of 10 ng/ml recombinant TGFβ1 treatment (R&D Systems) under these conditions were investigated. When required, cells were treated for 24 hours with 1 mM of the prolyl hydroxylase inhibitor DMOG (Sigma) to simulate hypoxia through the induction of HIF under normoxic conditions. Whole cell protein lysates were generated using RIPA Lysis Buffer (Millipore), containing a protease inhibitor cocktail (Roche). Nuclear protein extracts were obtained using the Ne-PeR Nuclear and Cytoplasmic extraction Reagents, according to manufacturer's instructions (Pierce Biotechnology). Protein concentrations were determined using the BCA Protein Assay Kit (Pierce). 10-20 μg of protein lysates were denatured, reduced and resolved on SDS-polyacrylamide gels by SDS-PAGE before transfer onto 0.45 μm pore size Immobilon-P polyvinylidene fluoride (PVDF) membranes (Millipore). Membranes were incubated with blocking buffer (TBS, 0.25% Tween-20, 0.1% serum from species that secondary antibody was raised in, and 5% fat free skimmed milk) for 1 hour at room temperature. Membranes were subsequently probed overnight with either anti-ASMA (Sigma), anti-collagen 1, anti-DNMT3B (Imgenex), or anti-hypoxia inducible factor 1α (HIF-1α) (Novus Biologicals). Detection of the specific binding of the primary antibody was achieved using HRP-conjugated secondary antibodies, followed by signal detection with Immobilon Western chemiluminescent HRP substrate (Millipore) according to the manufacturer's instructions. Anti-alpha tubulin (Sigma) was used to verify equal loading. For demethylation analysis, cells were treated with 1-5 μM 5-aza-2′-deoxycytidine (5-azadc; Sigma) for up to eight days. The effect of global DNA methylation inhibition on pro-fibrotic protein expression was assessed using Western blotting.

[2] = system: spontaneously hypertensive rats (SHR); assay: Doppler echocardiography in rat model of hypertensive heart disease; assay type: in vivo; conditions: SHR-5AZA vs SHR-V, 10 mg/kg i.p. alternate day, 12 weeks
Description: Approval from the local Animal Research Ethics Committee was sought and obtained to investigate the anti-fibrotic impact of 5-aza on cardiac function and fibrosis. Male spontaneously hypertensive rats (SHR) and their normotensive counterpart Wistar Kyote rats (WKY) were purchased from Charles River and utilised for the study. From 10 weeks of age, the animals received alternate day intra-peritoneal injection of either PBS (vehicle) or 5-aza (10 mg/kg) for 12 weeks. The 5-aza was purchased from Sigma, diluted in sterile PBS and filtered through a 0.22 μm filter. Aliquots were stored at −20° C. and were used within 5 days of reconstitution. The study design consisted of three groups of 10 animals; group 1 included 10 SHR rats who received 5-aza (SH R-5-aza); group 2 included 10 SHR rats who received PBS vehicle (SHR-V); group 3 included 10 WKY rats who received PBS vehicle (WKY-V). All rats were housed in the animal facility under identical conditions, with a 12 hour light-dark cycle. Cardiac structure and function was assessed at baseline and at the end of the study (12 weeks) using Echocardiography. During the procedure, the animals were under inhaled anaesthesia (isoflurane 2%) and body temperature was maintained using a heat mat. Echocardiography assessment was performed using a Vevo 770 High-Resolution In Vivo Micro-Imaging System (Visualsonics) with a […] transducer. M-mode and 2-dimensional (2D) images were obtained in the parasternal long- and short-axis views. The interventricular septal thickness, posterior wall thickness, and LV diameter were measured in systole and diastole at the tips of the papillary muscle. Measurements were taken over three consecutive cardiac cycles and averaged. Left ventricular mass (LVM) was calculated according to Devereux's formula and indexed to tibial length (LVMi). Blinded analysis was performed by two separate independent observers.

[3] = system: spontaneously hypertensive rats (SHR); assay: Hydroxyproline assay of total collagen in myocardium; assay type: in vivo, rat; conditions: SHR-5AZA vs SHR-V, 12 weeks
Description: (§1) Approval from the local Animal Research Ethics Committee was sought and obtained to investigate the anti-fibrotic impact of 5-aza on cardiac function and fibrosis. Male spontaneously hypertensive rats (SHR) and their normotensive counterpart Wistar Kyote rats (WKY) were purchased from Charles River and utilised for the study. From 10 weeks of age, the animals received alternate day intra-peritoneal injection of either PBS (vehicle) or 5-aza (10 mg/kg) for 12 weeks. The 5-aza was purchased from Sigma, diluted in sterile PBS and filtered through a 0.22 μm filter. Aliquots were stored at −20° C. and were used within 5 days of reconstitution. The study design consisted of three groups of 10 animals; group 1 included 10 SHR rats who received 5-aza (SH R-5-aza); group 2 included 10 SHR rats who received PBS vehicle (SHR-V); group 3 included 10 WKY rats who received PBS vehicle (WKY-V). All rats were housed in the animal facility under identical conditions, with a 12 hour light-dark cycle.

[4] = system: spontaneously hypertensive rats (SHR); assay: Picrosirius red staining with automated digital quantification of perivascular collagen; assay type: in vivo, rat; conditions: SHR-5AZA vs SHR-V, 12 weeks
Description: as §1, with “cycle. […]” for “cycle.”
The degree of collagen deposition was quantified by automated digital image analysis. […] A positive pixel count algorithm was used to automatically quantify the area occupied by the dark pink stain colours representing collagen within each scanned slide image. […] A collagen volume fraction was calculated based on the percent of dark pink collagen staining quantified within a tissue section.

[5] = system: spontaneously hypertensive rats (SHR); assay: Myocyte area digital analysis of haematoxylin and eosin stained cardiac tissue; assay type: in vivo, rat; conditions: SHR-5AZA vs SHR-V
Description: FIG. 16 depicts the effect of 5AZA treatment on myocyte area in vivo. […] Male spontaneously hypertensive rats (SHR) and their normotensive counterpart Wistar Kyote rats (WKY) were purchased from Charles River and utilised for the study. From 10 weeks of age, the animals received alternate day intra-peritoneal injection of either PBS (vehicle) or 5-aza (10 mg/kg) for 12 weeks. The 5-aza was purchased from Sigma, diluted in sterile PBS and filtered through a 0.22 μm filter. Aliquots were stored at −20° C. and were used within 5 days of reconstitution. The study design consisted of three groups of 10 animals; group 1 included 10 SHR rats who received 5-aza (SH R-5-aza); group 2 included 10 SHR rats who received PBS vehicle (SHR-V); group 3 included 10 WKY rats who received PBS vehicle (WKY-V). All rats were housed in the animal facility under identical conditions, with a 12 hour light-dark cycle.

[6] = system: spontaneously hypertensive rats (SHR); assay: Cardiac tissue gene expression of MYBP-C and ACTA1 by quantitative real-time PCR; assay type: in vivo, rat
Description: FIGS. 17 and 18 depict the effect of 5AZA treatment on cardiac expression levels of MYBP-C and ACTA1. Gene expression levels of MYBP-C and ACTA1 were assessed using quantitative real-time PCR in the cardiac tissue of SHR-V and SHR-AZA. […] Results represent mean and standard error of the mean. * p<0.05, *** p<0.001.
as §1

cardiac myoblast cells = assay: Cardiac myoblast gene expression of MYBP-C and ACTA1 in vitro by real-time PCR; assay type: cell-based; conditions: 4 day treatment
Description: Confirmation of the impact of DNA methylation inhibitors can up-regulate the expression levels of MYBP-C and ACTA1 was assessed in vitro using cardiac myoblast cells. Cells were grown in culture for 4 days either in the presence or absence of 5-azacytidine (5AZA) or 5-aza-2-deoxycytidine (5AZA_DC). Gene expression was quantified using real-time PCR.

HCF cells [7] = assay: TGFβ1 treatment of HCF cells, quantitative real-time PCR; assay type: cell-based, human
Description: (§2) Where indicated, HCF cells were exposed to a 1% oxygen environment for up to 8 days using a hypoxic chamber (Coy Laboratories). The effects of 10 ng/ml recombinant TGFβ1 treatment (R&D Systems) under these conditions were investigated. When required, cells were treated for 24 hours with 1 mM of the prolyl hydroxylase inhibitor DMOG (Sigma) to simulate hypoxia through the induction of HIF under normoxic conditions.
Gene expression changes were measured in HCF cells using QPCR as described in human cardiac tissue analysis methods section. RNA isolation from cells was achieved using NucleoSpin RNA II Kit (Macherey-Nagel). QPCR data was analysed using the delta delta CT method.

HCF cells [8] = assay: DMOG treatment of HCF cells in normoxia (Western blot); assay type: cell-based, human; conditions: 1 mM DMOG, 24 hours
Description: Primary human cardiac fibroblast cells from the adult ventricle (HCF) were purchased from ScienCell Research Laboratories. Primary cells were derived from a single person. Until required for experiments, cells were cultured and maintained in Dulbecco's modified eagles medium (DMEM) (Gibco), supplemented with 10% Fetal Bovine Serum (Gibco) and penicillin-streptomycin antibiotics (Gibco) in a 5% CO2 humidified incubator kept at 37° C.
as §2
Whole cell protein lysates were generated using RIPA Lysis Buffer (Millipore), containing a protease inhibitor cocktail (Roche). Nuclear protein extracts were obtained using the Ne-PeR Nuclear and Cytoplasmic extraction Reagents, according to manufacturer's instructions (Pierce Biotechnology). Protein concentrations were determined using the BCA Protein Assay Kit (Pierce). […]

[9] = 10 ng/ml TGFβ1, 8 days hypoxia (1% oxygen)

## Nc1ncn([C@@H]2O[C@H](CO)[C@@H](O)[C@H]2O)c(=O)n1 [5AZA, 5-azacytidine]
HCF cells [1]; FIGS. 7A-7C
  pro-fibrotic impact of hypoxia: reverses
[2]
  cardiac hypertrophy: significant reduction
[2]; 10 mg/kg
  E prime (E′), diastolic dysfunction: significantly approved; also recorded: significantly improved
  Ejection fraction (EF): significantly increased; also recorded: significantly improved
  interventricular septum diameter (in diastole): significant reduction; also recorded: reduced
  left ventricular mass index (LVMi): significant reduction; also recorded: reduced
[3]
  total collagen / collagen deposition within the myocardium (hydroxyproline): significant reduction
[4]
  perivascular collagen: significantly reduced; also recorded: significant decrease
[5]
  myocyte area: significantly smaller; also recorded: significant decrease
[6]; SHR animals treated with 5AZA
  ACTA1 expression in cardiac tissue: significant increase
  MYBP-C expression within the myocardium: significant increase
[6]; SHR-AZA vs SHR-V
  increase in ACTA1 gene expression in cardiac tissue: 4 fold
  increase in MYBP-C gene expression in cardiac tissue: 4 fold
Cardiac myoblast cells
  ACTA1 gene expression in cardiac myoblast cells: significant increase
  MYBP-C gene expression in cardiac myoblast cells: significant increase

## TGFβ1: human recombinant transforming growth factor beta 1, pro-fibrotic cytokine
HCF cells [7]; 10 ng/ml TGFβ1
  ASMA gene expression: significantly increased
  collagen 1 gene expression: significantly increased
HCF cells [7]; [9]
  ASMA gene expression: further enhanced
  collagen 1 gene expression: further enhanced

## COC(=O)CNC(=O)C(=O)OC [DMOG]
HCF cells [8]
  expression of DNMT3B: increased expression
  nuclear HIF-1α protein expression: stabilises

## Nc1ncn([C@H]2C[C@H](O)[C@@H](CO)O2)c(=O)n1 [5AZA_DC, 5-aza-2′-deoxycytidine]
HCF cells [1]
  expression of ASMA: reduced expression
  expression of collagen 1: reduced expression
  expression of collagen 3: reduced expression
  pro-fibrotic effects of / responses to TGFβ: significantly reduced
HCF cells [1]; listed as 5-aza2dC
  expression of ASMA: significantly reduced
  expression of collagen 1: significantly reduced
  expression of collagen 3: significantly reduced
  pro-fibrotic effects of / responses to TGFβ: inhibited
Cardiac myoblast cells
  ACTA1 gene expression in cardiac myoblast cells: significant increase
  MYBP-C gene expression in cardiac myoblast cells: significant increase
